Results as given in patent US8563717B2, “Adenine derivatives” (GlaxoSmithKline LLC, priority 2008, dated 2013).

Tests used:
Type in all cases: cell-based
Interferon-α [1] = assay: Induction of Interferon-α using cryopreserved human PBMCs; conditions: PBMC, 24 h incubation, normalised to 1 uM resiquimod, read-out: mean pEC50 for induction of IFN-α (converted)
How it was run: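 Cryopreserved healthy-donor PBMCs at 1×10^6 cells/ml in RPMI/10% FCS with 1000 units/ml IFN-gamma, exposed 24 h at 37 °C to 11-point two-fold compound dilutions. Supernatant IFN-α quantified by MSD electrochemiluminescence immunoassay; pEC50 from 4-parameter fit, normalised to 1 uM resiquimod and DMSO.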

Interferon-α [2] = assay: Induction of Interferon-α using fresh human PBMCs; conditions: PBMC, 24 hr incubation, relative to 2 μM resiquimod control, read-out: mean pEC50 for induction of IFN-α (converted)
Protocol: (§1) Assay for the Induction of Interferon-α and TNF-α Using Fresh Human Peripheral Blood Mononuclear Cells (PBMCs)
(§2) Compounds were dissolved and serially diluted in DMSO to give 100× the required concentration range using a Biomek 2000. 1 ul of test compound was transferred into 96-well tissue culture plates using a Biomek FX. Each compound was assayed in duplicate for each donor. Each plate contained a dilution series of the TLR7/8 agonist resiquimod as standard and Column 11 contained 1 μl of 200 μM resiquimod (giving a 2 μM final concentration, used to define the approximate maximal response to resiquimod).
(§3) Blood samples from two human donors were collected into sodium heparin (10 U/ml). 25 ml volumes of whole blood were overlaid onto 15 mls Histopaque in Leucosep tubes which were centrifuged at 800 g for 20 min and the band at the plasma/histopaque interface carefully removed. The collected cells were centrifuged at 2500 rpm for 10 min. and the pellet resuspended in 10 ml of media (RPMI 1640 (Low endotoxin) supplemented with 10% v/v foetal calf serum (FCS, low endotoxin) 100 U/ml penicillin G, 100 μg/ml streptomycin, 10 mM L-glutamine and 1× non-essential amino acids). A 1:20 dilution of the cells was prepared using trypan blue & the cells counted using a haemocytometer. The PBMCs were diluted to give a final concentration of 2×10^6/ml and 100 ul of this cells suspension was added to wells containing 1 μl of diluted test compound.
(§4) The cell preparations were incubated for 24 hr. (37° C., 95% air, 5% CO2) after which a sample of the supernatant was removed using the Biomek FX and assayed for both IFN-α and TNF-α using the MSD (Mesoscale Discovery) electrochemiluminescence assay platform. The IFN-α assay was carried out similarly to that described above. The TNF-α assay was carried out as per kit instructions (Cat No K111BHB).
(§5) Cytokine released was expressed as a percentage of the 2 μM resiquimod control (column 11). This percentage was plotted against compound concentration and the pEC50 for the response determined by non-linear least squares curve fitting. For the IFN-α responses generally a 4 parameter logistic model was selected. For the TNF responses where a clear maximum response was obtained (i.e. a well defined plateau in the response was observed) then a 4 parameter model was generally used. If the upper asymptote of the curve wasn't well defined then the curve fitting was generally constrained to a maximal response of 100% (i.e., to the response to 2 μM resiquimod) or to the response of the highest concentration tested if this was greater than the resiquimod response. Some curves were bell shaped for one or both cytokines and the cytokine data on the down slope of the bell shaped response (i.e. concentrations above those giving the maximal response) were generally excluded from the fit, usually with the exception of the concentration immediately above the peak response. Curve fitting thus concentrated on the up slope of the dose response curve.

TNF-α = assay: Induction of TNF-α using fresh human PBMCs; conditions: PBMC, 24 hr incubation, relative to 2 μM resiquimod control, read-out: mean pEC50 for induction of TNF-α (converted)
Protocol: as §1, §2, §3, §4, §5

IL-5 = assay: Allergen-driven cytokine assay using fresh human PBMCs from atopic volunteers (IL-5); conditions: PBMC, PBMCs from at least two allergic donors, 10 μg/ml Timothy grass antigen, compared to the allergen control, read-out: concentration at which ≧50% reduction of IL-5 production observed
Protocol: (§6) Allergen-Driven Cytokine Assay Using Fresh Human Peripheral Blood Mononuclear Cells (PBMCs) from Atopic Volunteers
(§7) An assay based on co-culture of atopic human donor derived peripheral blood mononuclear cells (PBMCs) with allergen and test compounds was developed. After 5-6 days culture, cell supernatants were assayed for a range of cytokines.
(§8) Compounds were dissolved in DMSO, then serially diluted in growth medium (RPMI 1640 medium supplemented with 100 U/ml penicillin G, 100 μg/ml streptomycin, 10 mM L-glutamine) to give 4× the required concentration range in the presence of 0.04% DMSO. Each compound was assayed in triplicate at all concentrations.
(§9) Defibrinated human blood from volunteers known to be allergic to Timothy grass was centrifuged at 2500 rpm for 15 minutes. The upper layer of serum was collected and heat-inactivated at 56° C. for 30 minutes (HI-autologous serum). The lower layer of cells was resuspended in 50 ml PBS (+Ca +Mg), 25 ml diluted blood were overlaid onto 20 ml Lymphoprep in 50 ml tubes then centrifuged at 2500 rpm for 20 minutes at RT. The band at the serum/Lymphoprep interface was carefully removed. The collected cells were washed with PBS and re-suspended at 4×10^6/ml in growth medium with HI-autologous serum. PBMCs were seeded at 0.4×10^6 cells/well in flat-bottomed 96 well plates in the presence of 10 μg/ml Timothy grass antigen (Alk Abello) and test compounds at appropriate concentrations in a total volume of 200 ul.
(§10) Plates were incubated at 37° C. in 5% CO2 for up to 6 days. The cell medium from each well was harvested and stored at −20° C. prior to analysis. Cytokines and chemokines in supernatants were detected using Meso Scale Discovery 10 spot plates for Human TH1/Th2 cytokines.

IL-13 = assay: Allergen-driven cytokine assay using fresh human PBMCs from atopic volunteers (IL-13); conditions: PBMC, PBMCs from at least two allergic donors, 10 μg/ml Timothy grass antigen, compared to the allergen control, read-out: concentration at which ≧50% reduction of IL-13 production observed
Protocol: as §6, §7, §8, §9, §10

| EC50 (Interferon-α [2]) [nM] | EC50 (TNF-α) [nM] | IC50 (IL-5) [nM] | IC50 (IL-13) [nM] | SMILES | EC50 (Interferon-α [1]) [nM] |
| --- | --- | --- | --- | --- | --- |
| < 10 | > 1000 | ≤ 8 | ≤ 40 | CCC[C@H](C)Oc1nc(N)c2[nH]c(=O)n(CCC3CCN(C(C)C)CC3)c2n1 [Example 92, 6-Amino-2-{[(1S)-1-methylbutyl]oxy}-9-{2-[1-(1-methylethyl)-4-piperidinyl]ethyl}-7,9-dihydro-8H-purin-8-one] | < 1580 |
| < 10 | > 1000 | ≤ 8 | ≤ 40 | CCCCOc1nc(N)c2[nH]c(=O)n(CCCCC3CCN(CC)CC3)c2n1 [Example 10, 6-Amino-2-(butyloxy)-9-[4-(1-ethyl-4-piperidinyl)butyl]-7,9-dihydro-8H-purin-8-one] | < 1580 |
